In patent US20080306107A1, “Compounds” (AstraZeneca AB, priority 2004, published 2008):

Biological target: T1, hVR1 (Homo sapiens, UniProt Q8NER1)
T1 construct: expressed in transfected cells
Experiment: hVR1 FLIPR (Fluorometric Image Plate Reader) screening assay, IC50 determination
Assay type: cell-based
Conditions: transfected CHO cells stably expressing hVR1; Fluo-4 calcium fluorescence; agonist 50 nM capsaicin or MES buffer pH 5.2
Protocol: 1. hVR1 FLIPR (Fluorometric Image Plate Reader) Screening Assay
Transfected CHO cells, stably expressing hVR1 (15,000 cells/well) are seeded in 50 ul media in a black clear bottom 384 plate (Greiner) and grown in a humidified incubator (37° C., 2% CO2), 24-30 hours prior to experiment.
Subsequently, the media is removed from the cell plate by inversion and 2 μM Fluo-4 is added using a multidrop (Labsystems). Following the 40 minutes dye incubation in the dark at 37° C. and 2% CO2, the extracellular dye present is washed away using an EMBLA (Scatron), leaving the cells in 40 ul of assay buffer (1×HBSS, 10 mM D-Glucose, 1 mM CaCl2, 10 mM HEPES, 10×7.5% NaHCO3 and 2.5 mM Probenecid).
FLIPR Assay —IC50 Determination Protocol
For IC50 determinations the fluorescence is read using FLIPR filter 1 (em […]). A cellular baseline recording is taken for 30 seconds, followed by a 20 μl addition of 10, titrated half-log concentrations of the test compound, yielding cellular concentration ranging from 3 μM to 0.1 nM. […] This consequently leading to a reduction in fluorescence signal and providing a reduced fluorescence reading, compared with no compound, buffer controls. Data is exported by the FLIPR program as a sum of fluorescence calculated under the curve upon the addition of capsaicin. […]

T1 sequence (Q8NER1 whole entry): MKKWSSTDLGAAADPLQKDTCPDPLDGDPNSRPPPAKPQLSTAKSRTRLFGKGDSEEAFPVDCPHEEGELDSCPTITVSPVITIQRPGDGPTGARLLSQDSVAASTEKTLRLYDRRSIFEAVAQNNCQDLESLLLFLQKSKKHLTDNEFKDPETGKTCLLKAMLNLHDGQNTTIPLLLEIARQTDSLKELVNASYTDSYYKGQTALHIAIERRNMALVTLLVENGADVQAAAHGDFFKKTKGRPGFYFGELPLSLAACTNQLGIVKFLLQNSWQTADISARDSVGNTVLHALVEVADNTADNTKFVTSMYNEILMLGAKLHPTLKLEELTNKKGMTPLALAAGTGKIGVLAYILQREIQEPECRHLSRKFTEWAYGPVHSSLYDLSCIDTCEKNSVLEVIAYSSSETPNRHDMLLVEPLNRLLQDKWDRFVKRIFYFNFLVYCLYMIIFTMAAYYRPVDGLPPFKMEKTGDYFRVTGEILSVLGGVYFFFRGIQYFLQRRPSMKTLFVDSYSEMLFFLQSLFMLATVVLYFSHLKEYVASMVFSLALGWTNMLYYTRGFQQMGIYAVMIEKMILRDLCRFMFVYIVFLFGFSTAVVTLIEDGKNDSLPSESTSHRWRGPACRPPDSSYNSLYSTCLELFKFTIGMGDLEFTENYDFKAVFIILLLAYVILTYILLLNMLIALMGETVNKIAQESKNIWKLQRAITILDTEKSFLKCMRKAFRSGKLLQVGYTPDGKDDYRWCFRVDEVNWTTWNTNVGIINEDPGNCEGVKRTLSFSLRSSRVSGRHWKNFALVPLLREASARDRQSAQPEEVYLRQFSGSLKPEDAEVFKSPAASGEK

| IC50 [nM] | SMILES |
| --- | --- |
| 119 | Cc1cc(C(F)(F)F)c2c(N)c(C(=O)NCCc3ccccc3C)sc2n1 [Compound 3, 3-amino-6-methyl-N-[2-(2-methylphenyl)ethyl]-4-(trifluoromethyl)thieno[2,3-b]pyridine-2-carboxamide] |
| 716 | Cc1cc(C(F)(F)F)c2c(N)c(C(=O)NCCc3ccccc3)sc2n1 [Compound 11, 3-amino-6-methyl-N-(2-phenylethyl)-4-(trifluoromethyl)thieno[2,3-b]pyridine-2-carboxamide] |
